Data from ChEMBL document CHEMBL1201862, “PubChem BioAssay data set” (2004).
Active and inactive are the calls of the source.

Legend:
[1] = test system: Streptococcus sp. 'group A'; test: Streptococcus pyogenes SK(-)GAS viability under kanamycin – luminescence, BacTiterGlo, confirmation, counter-screen for streptokinase expression inhibitor project, dose response (AID 1900); type: functional, organism-based
Streptococcus = test: GAS UMAA2166 growth inhibition – luminescence, BacTiterGlo, counter-screen for streptokinase expression inhibitor project, dose response (AID 1915); type: functional, organism-based;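 further: potency for reduction of bacterial viability or growth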
Streptokinase A = molecular target: T1, Streptokinase A (Streptococcus pyogenes serotype M1, UniProt P10520); test: viability-normalized secreted streptokinase activity reduction – plasminogen activation absorbance, OD405, dose response (AID 1914); type: functional, Streptococcus pyogenes M1 GAS;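 further: secreted streptokinase activity via plasminogen activation per viability signal from cell pellet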
T1 sequence (P10520 whole entry): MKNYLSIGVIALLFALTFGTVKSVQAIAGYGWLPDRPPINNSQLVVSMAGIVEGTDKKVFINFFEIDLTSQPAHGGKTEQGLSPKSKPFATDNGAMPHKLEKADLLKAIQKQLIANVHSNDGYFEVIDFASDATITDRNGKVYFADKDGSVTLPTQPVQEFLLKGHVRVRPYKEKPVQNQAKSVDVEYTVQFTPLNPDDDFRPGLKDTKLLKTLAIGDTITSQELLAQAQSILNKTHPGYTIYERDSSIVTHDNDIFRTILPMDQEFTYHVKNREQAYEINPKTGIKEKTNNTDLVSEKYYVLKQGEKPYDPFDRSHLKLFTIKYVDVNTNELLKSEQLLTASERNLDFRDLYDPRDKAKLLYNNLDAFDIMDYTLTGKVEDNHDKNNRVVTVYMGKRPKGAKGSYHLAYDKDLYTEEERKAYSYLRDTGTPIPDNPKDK

[2] = molecular target: Serine/threonine-protein phosphatase (Homo sapiens, UniProt Q9BPW0); test: Counterscreen for inhibitors of PP1: fluorescence-based biochemical high throughput dose response assay to identify inhibitors of Protein Phosphatase 5 (PP5). [Related pubchem assays: 2034 (Summary (PP5 inhibitors)), 1987 (PP5 inhibitors in singlate), 2235 (PP1 inhibitors in singlate)]
[3] = molecular target: Induced myeloid leukemia cell differentiation protein Mcl-1 (Homo sapiens, UniProt Q07820); type: functional
Aminopeptidase N = molecular target: T2, Aminopeptidase N (Plasmodium falciparum FcB1/Columbia, UniProt O96935); test: malaria alanyl aminopeptidase activity blockers – biochemical, fluorogenic H-Leu-NHMec substrate, 1536-well (AID 1445); design: species or system Plasmodium falciparum 3D7, 3D7
T2 sequence (O96935 whole entry): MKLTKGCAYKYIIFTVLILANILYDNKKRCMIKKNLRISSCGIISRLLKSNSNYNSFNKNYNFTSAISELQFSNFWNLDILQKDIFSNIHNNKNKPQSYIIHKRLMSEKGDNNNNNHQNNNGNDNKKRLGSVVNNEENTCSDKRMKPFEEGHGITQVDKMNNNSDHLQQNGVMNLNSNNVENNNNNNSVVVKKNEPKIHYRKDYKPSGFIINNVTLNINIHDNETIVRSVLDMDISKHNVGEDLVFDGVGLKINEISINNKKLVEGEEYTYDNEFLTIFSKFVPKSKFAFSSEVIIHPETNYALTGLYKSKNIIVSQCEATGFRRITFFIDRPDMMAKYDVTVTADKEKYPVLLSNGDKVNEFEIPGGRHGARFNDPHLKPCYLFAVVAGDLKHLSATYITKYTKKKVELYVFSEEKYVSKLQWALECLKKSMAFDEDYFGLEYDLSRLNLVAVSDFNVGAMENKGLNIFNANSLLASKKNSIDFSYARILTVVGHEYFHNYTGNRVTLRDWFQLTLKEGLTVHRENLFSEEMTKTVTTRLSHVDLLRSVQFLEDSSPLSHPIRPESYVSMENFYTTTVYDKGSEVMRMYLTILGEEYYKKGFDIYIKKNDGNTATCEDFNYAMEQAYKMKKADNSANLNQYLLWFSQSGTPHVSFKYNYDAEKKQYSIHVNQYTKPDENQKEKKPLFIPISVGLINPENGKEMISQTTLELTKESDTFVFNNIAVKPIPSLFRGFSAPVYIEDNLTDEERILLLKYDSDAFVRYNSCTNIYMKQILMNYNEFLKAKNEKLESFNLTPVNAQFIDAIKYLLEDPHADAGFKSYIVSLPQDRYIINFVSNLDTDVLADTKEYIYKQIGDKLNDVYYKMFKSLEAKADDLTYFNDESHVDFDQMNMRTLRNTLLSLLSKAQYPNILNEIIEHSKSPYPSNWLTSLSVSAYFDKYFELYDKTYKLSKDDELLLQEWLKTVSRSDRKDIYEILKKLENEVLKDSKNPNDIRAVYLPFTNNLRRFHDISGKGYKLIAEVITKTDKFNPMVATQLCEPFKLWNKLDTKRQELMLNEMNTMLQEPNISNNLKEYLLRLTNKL

[4] = molecular target: Serine/threonine-protein phosphatase PP1-alpha catalytic subunit (Homo sapiens, UniProt P62136); test: inhibition of protein phosphatase 1 activity – biochemical, fluorescence, dose response (AID 2403);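 further: phosphatase turnover of OMFP into fluorescent 3-O-methylfluorescein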
[5] = antiviral protection against BTV-induced cell death – arbovirus, BSR cells, confirmation (AID 1250); type: functional;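 further: protection from viral cytopathic effect measured as cell viability by ATP luminescence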
[6] = molecular target: T3, Short transient receptor potential channel 4 (Mus musculus, UniProt Q9QUQ5); test: block of DAMGO-driven TRPC4 calcium entry – cell-based, HEK293 TRPC4/mu-opioid, Fluo-4 calcium, dose response (AID 434942); type: functional;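 further: potency of inhibitors blocking the TRPC4 calcium response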
T3 sequence (Q9QUQ5 whole entry): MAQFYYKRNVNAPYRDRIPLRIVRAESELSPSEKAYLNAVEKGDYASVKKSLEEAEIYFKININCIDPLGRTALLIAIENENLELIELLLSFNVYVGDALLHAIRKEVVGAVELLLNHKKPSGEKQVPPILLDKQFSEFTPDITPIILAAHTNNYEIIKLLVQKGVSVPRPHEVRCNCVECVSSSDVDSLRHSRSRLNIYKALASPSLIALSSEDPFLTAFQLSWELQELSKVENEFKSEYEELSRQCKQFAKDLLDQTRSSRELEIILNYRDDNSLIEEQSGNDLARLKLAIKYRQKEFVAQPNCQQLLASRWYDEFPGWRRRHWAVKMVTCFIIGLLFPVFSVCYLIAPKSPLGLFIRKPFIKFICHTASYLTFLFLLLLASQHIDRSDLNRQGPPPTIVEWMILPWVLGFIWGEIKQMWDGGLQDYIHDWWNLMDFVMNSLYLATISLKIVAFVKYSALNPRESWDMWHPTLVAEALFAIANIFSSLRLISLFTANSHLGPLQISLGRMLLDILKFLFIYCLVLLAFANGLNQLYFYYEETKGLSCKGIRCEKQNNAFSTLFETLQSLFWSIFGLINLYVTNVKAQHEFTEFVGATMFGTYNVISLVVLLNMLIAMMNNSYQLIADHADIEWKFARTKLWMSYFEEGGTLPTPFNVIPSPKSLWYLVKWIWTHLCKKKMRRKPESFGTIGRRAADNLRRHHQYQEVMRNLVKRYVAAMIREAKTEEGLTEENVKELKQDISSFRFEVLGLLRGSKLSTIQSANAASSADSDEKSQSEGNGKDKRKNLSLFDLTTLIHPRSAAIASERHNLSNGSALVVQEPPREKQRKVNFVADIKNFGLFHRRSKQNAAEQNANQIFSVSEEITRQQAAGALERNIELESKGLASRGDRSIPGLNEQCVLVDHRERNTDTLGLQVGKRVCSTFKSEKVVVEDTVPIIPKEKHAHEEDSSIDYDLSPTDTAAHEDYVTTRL

Leucine aminopeptidase = molecular target: T4, Leucine aminopeptidase (Plasmodium falciparum 3D7, UniProt Q8IL11); test: P. falciparum M17LAP inhibitors, primary screen, biochemical, fluorogenic H-Leu-NHMec substrate, 1536-well (AID 1619); type: functional
T4 sequence (Q8IL11 whole entry): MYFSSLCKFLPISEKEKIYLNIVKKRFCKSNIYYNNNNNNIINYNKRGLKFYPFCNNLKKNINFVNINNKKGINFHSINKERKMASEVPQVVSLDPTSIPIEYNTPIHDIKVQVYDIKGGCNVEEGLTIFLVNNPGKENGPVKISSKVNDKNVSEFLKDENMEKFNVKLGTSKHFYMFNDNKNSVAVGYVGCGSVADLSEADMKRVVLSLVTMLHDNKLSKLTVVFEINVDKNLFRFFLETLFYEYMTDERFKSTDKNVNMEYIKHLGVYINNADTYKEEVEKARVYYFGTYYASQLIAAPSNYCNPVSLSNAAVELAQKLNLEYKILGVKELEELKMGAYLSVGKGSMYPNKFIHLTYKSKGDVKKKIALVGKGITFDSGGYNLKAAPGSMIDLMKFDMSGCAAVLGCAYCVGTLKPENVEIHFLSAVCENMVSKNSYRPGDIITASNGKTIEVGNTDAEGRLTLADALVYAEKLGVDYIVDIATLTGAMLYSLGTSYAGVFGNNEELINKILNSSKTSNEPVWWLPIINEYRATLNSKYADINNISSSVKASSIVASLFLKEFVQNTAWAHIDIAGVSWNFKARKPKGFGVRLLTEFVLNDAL

Bcl-2-like protein 10 = molecular target: T5, Bcl-2-like protein 10 (Homo sapiens, UniProt Q9HD36); test: Concentration-response of Bcl-B inhibitors by biochemical FP with TR3 (AID 1243); type: functional
T5 sequence (Q9HD36 whole entry): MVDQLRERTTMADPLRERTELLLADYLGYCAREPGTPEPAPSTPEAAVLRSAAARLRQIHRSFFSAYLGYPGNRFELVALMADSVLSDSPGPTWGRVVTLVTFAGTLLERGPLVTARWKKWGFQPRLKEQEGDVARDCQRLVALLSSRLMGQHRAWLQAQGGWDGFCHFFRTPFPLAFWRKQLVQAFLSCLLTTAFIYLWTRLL

[7] = molecular target: Melanin-concentrating hormone receptor 1 (Homo sapiens, UniProt Q99705); test: Fluorescence-based counterscreen for antagonists of the G-protein coupled receptor 7 (GPR7): cell-based high throughput dose response assay to identify antagonists of the melanin-concentrating hormone receptor 1 (MCHR1).; type: functional
[8] = molecular target: T6, Neuropeptides B/W receptor type 1 (Homo sapiens, UniProt P48145); test: Fluorescence-based dose response cell-based high throughput screening assay to identify antagonists of the G-protein coupled receptor 7 (GPR7). [Related pubchem assays: 1952 (Screening assay (GPR7 antagonists).), 1880 (Summary AID.)]; type: functional
T6 sequence (P48145 whole entry): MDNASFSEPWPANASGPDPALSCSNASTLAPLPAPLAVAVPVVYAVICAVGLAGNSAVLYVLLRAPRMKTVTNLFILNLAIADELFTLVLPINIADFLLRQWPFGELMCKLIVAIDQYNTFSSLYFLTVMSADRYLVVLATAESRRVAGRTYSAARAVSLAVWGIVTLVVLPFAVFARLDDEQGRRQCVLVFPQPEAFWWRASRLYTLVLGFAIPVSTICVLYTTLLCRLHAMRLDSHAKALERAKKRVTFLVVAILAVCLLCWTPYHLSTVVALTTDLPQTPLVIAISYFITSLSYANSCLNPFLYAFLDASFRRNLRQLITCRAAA

Cytochrome P450 2C9 = Cytochrome P450 2C9 (Homo sapiens, UniProt P11712); conditions: Potency
HEK293 = test: Fluorescence-based counterscreen for potentiators or agonists of NPY-Y2: cell-based high-throughput dose response assay to identify inhibitors of cyclic nucleotide gated ion channel (CNGC) activity. In this assay, the parental HEK293 cell line transfected with a cyclic-nucleotide gated ion channel (CNGC)-based cAMP sensor is used to measure inhibition of isoproterenol-induced CNGC activity by test compound.; type: functional; conditions: Homo sapiens;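 further: stimulus is 1 µM isoproterenol at EC100 plus PDE inhibitor Ro 20-1724 at 25 µM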
[9] = molecular target: Neuropeptide Y receptor type 1 (Homo sapiens, UniProt P25929); test: Fluorescence-based counterscreen for agonists of NPY-Y2: cell-based high-throughput dose response assay for agonists of NPY-Y1.; type: functional
[10] = molecular target: Neuropeptide Y receptor type 2 (Homo sapiens, UniProt P49146); test: Fluorescence-based cell-based high-throughput dose response assay for agonists of NPY-Y2. [Related pubchem assays: 1703 (Screening assay (CNGC inhibitors).), 1359 (Screening assay (NPY-Y2 potentiators or agonists).), 1304 (Screening assay (NPY-Y1 potentiators or agonists).), 1710 (Screening assay (NPY-Y2 agonists).), 1791 (Summary AID.)]; type: functional
Neuropeptide Y receptor type 2, sequence (P49146 whole entry): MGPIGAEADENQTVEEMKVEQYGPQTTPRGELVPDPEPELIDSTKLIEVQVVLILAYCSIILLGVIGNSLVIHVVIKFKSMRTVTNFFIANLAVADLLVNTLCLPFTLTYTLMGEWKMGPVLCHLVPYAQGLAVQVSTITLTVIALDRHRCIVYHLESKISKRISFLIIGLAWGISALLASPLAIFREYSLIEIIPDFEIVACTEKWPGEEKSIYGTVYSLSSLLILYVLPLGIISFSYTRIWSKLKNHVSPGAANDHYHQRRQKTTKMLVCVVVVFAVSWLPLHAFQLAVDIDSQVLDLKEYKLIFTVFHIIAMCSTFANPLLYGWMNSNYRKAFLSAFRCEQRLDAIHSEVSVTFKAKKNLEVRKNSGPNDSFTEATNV

Cytochrome P450 2C9, sequence (P11712 whole entry): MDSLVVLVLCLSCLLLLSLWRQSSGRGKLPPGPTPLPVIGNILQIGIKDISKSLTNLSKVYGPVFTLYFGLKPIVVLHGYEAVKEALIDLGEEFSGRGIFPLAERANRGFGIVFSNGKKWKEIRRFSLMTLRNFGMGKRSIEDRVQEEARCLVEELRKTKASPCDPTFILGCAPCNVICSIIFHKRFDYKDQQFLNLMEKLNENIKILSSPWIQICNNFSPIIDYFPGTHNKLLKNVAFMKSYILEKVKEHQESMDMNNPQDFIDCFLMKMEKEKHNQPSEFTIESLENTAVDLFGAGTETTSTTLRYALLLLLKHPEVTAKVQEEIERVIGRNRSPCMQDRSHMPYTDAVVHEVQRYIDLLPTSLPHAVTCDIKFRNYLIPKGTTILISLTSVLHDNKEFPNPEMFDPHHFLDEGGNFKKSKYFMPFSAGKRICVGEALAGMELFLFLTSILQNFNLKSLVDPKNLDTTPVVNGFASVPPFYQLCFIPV
Serine/threonine-protein phosphatase PP1-alpha catalytic subunit, sequence (P62136 whole entry): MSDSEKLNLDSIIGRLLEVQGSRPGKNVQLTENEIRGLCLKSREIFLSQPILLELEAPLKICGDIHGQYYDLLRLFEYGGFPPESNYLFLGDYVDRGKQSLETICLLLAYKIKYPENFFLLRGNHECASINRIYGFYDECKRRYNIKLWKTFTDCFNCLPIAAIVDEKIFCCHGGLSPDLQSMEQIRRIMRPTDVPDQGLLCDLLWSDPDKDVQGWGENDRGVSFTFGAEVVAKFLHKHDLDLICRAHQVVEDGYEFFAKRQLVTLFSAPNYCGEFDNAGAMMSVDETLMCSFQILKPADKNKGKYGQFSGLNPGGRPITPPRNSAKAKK
Neuropeptide Y receptor type 1, sequence (P25929 whole entry): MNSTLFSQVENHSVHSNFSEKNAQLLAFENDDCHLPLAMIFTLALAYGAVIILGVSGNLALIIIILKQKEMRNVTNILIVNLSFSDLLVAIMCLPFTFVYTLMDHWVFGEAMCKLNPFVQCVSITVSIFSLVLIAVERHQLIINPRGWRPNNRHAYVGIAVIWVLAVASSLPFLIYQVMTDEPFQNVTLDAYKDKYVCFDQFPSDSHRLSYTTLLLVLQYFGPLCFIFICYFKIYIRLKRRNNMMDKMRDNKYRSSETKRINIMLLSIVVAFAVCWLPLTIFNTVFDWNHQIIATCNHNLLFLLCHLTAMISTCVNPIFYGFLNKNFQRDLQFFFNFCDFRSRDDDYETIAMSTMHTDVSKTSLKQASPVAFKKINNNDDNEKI
Induced myeloid leukemia cell differentiation protein Mcl-1, sequence (Q07820 whole entry): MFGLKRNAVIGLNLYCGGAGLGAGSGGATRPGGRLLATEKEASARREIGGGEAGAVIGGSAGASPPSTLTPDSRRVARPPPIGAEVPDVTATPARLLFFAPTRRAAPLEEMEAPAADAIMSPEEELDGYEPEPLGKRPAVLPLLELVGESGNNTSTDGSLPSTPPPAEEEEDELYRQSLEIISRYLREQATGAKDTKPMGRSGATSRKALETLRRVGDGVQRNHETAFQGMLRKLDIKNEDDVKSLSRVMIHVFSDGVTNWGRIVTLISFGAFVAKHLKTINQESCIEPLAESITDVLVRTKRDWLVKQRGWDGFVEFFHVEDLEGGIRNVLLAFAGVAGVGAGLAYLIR
Melanin-concentrating hormone receptor 1, sequence (Q99705 whole entry): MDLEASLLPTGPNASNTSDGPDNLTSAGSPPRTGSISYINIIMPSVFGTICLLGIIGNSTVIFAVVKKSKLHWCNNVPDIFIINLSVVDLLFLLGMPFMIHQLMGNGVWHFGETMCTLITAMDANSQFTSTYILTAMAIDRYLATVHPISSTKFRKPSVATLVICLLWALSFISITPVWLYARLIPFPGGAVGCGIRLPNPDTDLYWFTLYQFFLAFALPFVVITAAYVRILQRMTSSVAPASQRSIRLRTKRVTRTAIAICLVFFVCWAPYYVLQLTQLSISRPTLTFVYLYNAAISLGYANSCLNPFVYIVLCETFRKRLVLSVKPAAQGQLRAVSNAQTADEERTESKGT
Serine/threonine-protein phosphatase, sequence (Q9BPW0 whole entry): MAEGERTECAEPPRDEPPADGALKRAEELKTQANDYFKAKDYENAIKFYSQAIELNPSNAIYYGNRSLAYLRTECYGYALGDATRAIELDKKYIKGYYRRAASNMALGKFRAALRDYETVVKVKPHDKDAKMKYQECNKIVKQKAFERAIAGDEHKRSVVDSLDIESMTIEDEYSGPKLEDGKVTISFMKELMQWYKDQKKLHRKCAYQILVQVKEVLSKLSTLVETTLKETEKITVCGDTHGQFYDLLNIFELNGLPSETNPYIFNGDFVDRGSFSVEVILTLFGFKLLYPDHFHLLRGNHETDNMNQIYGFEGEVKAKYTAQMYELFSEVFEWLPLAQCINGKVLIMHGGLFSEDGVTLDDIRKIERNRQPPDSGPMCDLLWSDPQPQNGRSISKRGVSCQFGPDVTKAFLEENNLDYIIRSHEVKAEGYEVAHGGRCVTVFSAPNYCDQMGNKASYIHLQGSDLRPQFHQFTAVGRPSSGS

CCOC(=O)c1sc2nc3c(SCC(=O)O)cc(C(=O)c4cc(F)ccc4O)cn3c(=O)c2c1C
EC50 [1]: 1.86 µM (active) | EC50 (Streptococcus): 141 µM (active) | EC50 (Streptokinase A): 15.4 µM (active) | IC50 [2]: > 67 µM (not active) | IC50 [3]: 2.63 µM (active) | IC50 (Aminopeptidase N): 21.9 µM (active) | IC50 [4]: 5.11 µM (active)

Cc1ccc(-c2csc(NC(=O)C3CC=CCC3C(=O)O)c2C(=O)OC(C)C)cc1 (configuration not stated)
IC50 [5]: 39.4 µM (active) | EC50 [6]: 5.96 µM (active) | IC50 (Leucine aminopeptidase): 9.13 µM (active)

CN1CCN(CN2C(=O)/C(=N\NC(=O)CSc3nc4ccccc4s3)c3ccccc32)CC1
EC50 (Bcl-2-like protein 10): 12.9 µM (active)

CCCCNc1nc2ccccc2n1CC(=O)Nc1c(C)cccc1CC
IC50 [7]: 31.7 µM (not active) | IC50 [8]: > 43.8 µM (not active)

Cc1ccccc1OC1C=CC(C#Cc2ccc(Br)cc2)OC1CO (configuration not stated)
AC50 (Cytochrome P450 2C9): 3.98 µM (inconclusive)

Fc1ccc2c(c1)/C(=N/Nc1ccccn1)CCS2
EC50 (HEK293): 7.7 µM (active) | EC50 [9]: 12.4 µM (not active) | EC50 [10]: 11.3 µM (not active)
